Here are results for four compounds from patent WO2016087994A1, “Btk inhibitors to treat solid tumors through modulation of the tumor microenvironment” (dated 2016).

“Also recorded” adds a separate entry of the source.

Series [1] addresses epidermal growth factor receptor (EGFR) (Homo sapiens, UniProt P00533). The note with it: cited from earlier work.
Series [2] has as its system CLL/lymphoid malignancies. To be noted: human, in vivo; cited from earlier work.
Series [3] relates to rituximab-coated Raji cells. In words: Rituximab ADCC, chromium release, Raji targets. The format is cell-based, human. To be noted: 1 μM; healthy donor NK cells / Raji; listed as ibrutinib.
For series [4] the following is noted: 420 mg QD; cited from earlier work.
Series [5] concerns CD8 + T cells with B lymphoblast targets. In words: Cytotoxic T cell (CTL) assay. The format is cell-based. The note with it: 500 nM, relative to vehicle.
Series [6] concerns B cell receptor (CD69 on CD19+ B cells). In words: Inhibition of BCR signaling (CD69) on B cells in whole blood. The format is cell-based. The note with it: Homo sapiens, 18 h.
In series [7] the test system is CD8 + T cells. Nature of the series: CD8+ T cell viability. The format is cell-based. To be noted: higher concentrations of ibrutinib; any concentration of Formula (II).
Another series has as its system CD4 + T cells. In words: Th17 and Treg development of CD4+ T cells. The format is cell-based.
The test system of series [8] is CD8 + T cells. Nature of the series: CD8+ T cell IFN-γ levels. The note with it: relative to vehicle. The format is cell-based.
For series [9], the system named is GPVI platelet aggregation. In words: GPVI (convulxin-induced) human platelet aggregation. The format is cell-based.
The test system of series [10] is human platelet-mediated thrombosis. Nature of the series: In vivo human platelet thrombus formation after laser injury in VWF HA1 mice. Set-up: species or system human platelets in VWF HA1 mice.
The test system of series [11] is metastatic pancreatic cancer. The note with it: Phase 3; P < 0.001; cited from earlier work.
The next series has as its system CLL. To be noted: cited from earlier work.
Setting [12] is: Phase 1, previously treated CLL, monotherapy.

Chain of epidermal growth factor receptor (EGFR) (P00533 25-1210): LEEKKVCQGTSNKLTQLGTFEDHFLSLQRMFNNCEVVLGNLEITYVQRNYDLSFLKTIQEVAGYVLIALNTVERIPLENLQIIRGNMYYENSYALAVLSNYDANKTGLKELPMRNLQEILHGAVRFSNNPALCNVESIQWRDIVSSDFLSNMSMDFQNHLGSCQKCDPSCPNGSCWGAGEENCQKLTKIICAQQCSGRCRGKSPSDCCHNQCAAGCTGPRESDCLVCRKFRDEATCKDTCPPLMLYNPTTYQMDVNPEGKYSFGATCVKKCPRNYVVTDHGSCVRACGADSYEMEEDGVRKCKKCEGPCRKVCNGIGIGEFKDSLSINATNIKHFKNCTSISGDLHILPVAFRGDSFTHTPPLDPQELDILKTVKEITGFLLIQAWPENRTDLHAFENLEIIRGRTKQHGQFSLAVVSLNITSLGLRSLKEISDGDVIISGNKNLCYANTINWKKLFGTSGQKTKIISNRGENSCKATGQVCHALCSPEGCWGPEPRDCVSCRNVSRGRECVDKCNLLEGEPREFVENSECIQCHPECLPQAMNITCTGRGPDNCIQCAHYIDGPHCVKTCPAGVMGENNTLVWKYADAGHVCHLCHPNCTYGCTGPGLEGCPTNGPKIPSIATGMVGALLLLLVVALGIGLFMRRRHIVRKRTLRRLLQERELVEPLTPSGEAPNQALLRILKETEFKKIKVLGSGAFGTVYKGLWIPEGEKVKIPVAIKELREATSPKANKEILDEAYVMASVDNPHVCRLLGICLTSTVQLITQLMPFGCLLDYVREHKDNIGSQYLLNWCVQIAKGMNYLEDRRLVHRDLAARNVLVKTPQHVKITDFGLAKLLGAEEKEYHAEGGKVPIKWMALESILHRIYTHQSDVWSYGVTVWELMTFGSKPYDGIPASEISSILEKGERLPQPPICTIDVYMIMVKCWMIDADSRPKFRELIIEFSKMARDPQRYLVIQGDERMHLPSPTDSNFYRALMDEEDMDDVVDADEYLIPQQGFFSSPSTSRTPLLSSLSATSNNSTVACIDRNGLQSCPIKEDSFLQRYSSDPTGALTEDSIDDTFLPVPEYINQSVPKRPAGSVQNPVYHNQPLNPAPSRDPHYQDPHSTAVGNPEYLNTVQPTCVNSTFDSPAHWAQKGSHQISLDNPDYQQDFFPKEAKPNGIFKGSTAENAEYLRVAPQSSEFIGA

For `C=CC(=O)N1CCC[C@@H](n2nc(-c3ccc(Oc4ccccc4)cc3)c3c(N)ncnc32)C1` [Formula (X), l-[(3i?)-3-[4-amino-3-(4-phenoxyphenyl)-lH-pyrazolo[3,4-i]pyrimidin-l-yl]piperidin-l-yl]prop-2-en-l-one], the “inhibition of EGFR (in words)” value in series [1] was “inhibits epidermal growth factor receptor (EGFR)”. For the same compound, in [2], the “onset of lymphocytosis after start of therapy” value is reported as 1-2 weeks and the “time to plateau of lymphocytosis” value was 2-3 cycles. Further, the “inhibition of rituximab ADCC (in words)” value in [3] is “completely inhibited ADCC; also recorded: strongly inhibited the antibody-dependent lysis of target cells”. Moreover, the “bleeding events in CLL” value in series [4] was 63%. For the same compound, in [5], the “CD8+ T cell function as % cytotoxicity (in words)” value is “affects CD8 + T cell function”. The compound further returned an EC50 in series [6] of 6.1 nM. Moreover, the “CD8+ T cell viability (in words)” value in the series with CD8 + T cells [7] is on record as “strong, negative effect on CD8 + T cell viability”. In the series on CD4 + T cells, the “Th17 development (in words)” value was “profound inhibition of Thl7 cells” and the “Treg development (in words)” value was “increase in Treg development”. In addition, in the series with CD8 + T cells [8], the “CD8+ T cell function as IFN-γ level (in words)” value is recorded as “affects CD8 + T cell function; also recorded: significant loss of function”. For the same compound, the “inhibition of GPVI platelet aggregation (in words)” value in [9] is “significantly inhibits GPVI platelet aggregation”. In addition, the IC50 in series [9] (Homo sapiens, Platelet, read-out: IC50, GPVI platelet aggregation) came to 130 nM.

Turning to `C=CC(=O)Nc1cccc(Nc2nc(Nc3ccc(OCCOC)cc3)ncc2F)c1` [Formula (XVII), N-(3-((5-fluoro-2-((4-(2-methoxyethoxy)phenyl)amino)pyrimidin-4-yl)amino)phenyl)acrylamide, reference compound], the “effect on thrombus formation (in words)” value in series [10] is “interfere with thrombus formation; also recorded: an effect similar to Formula (X) (ibrutinib)”.

Take `Nc1ccn([C@@H]2O[C@H](CO)[C@@H](O)C2(F)F)c(=O)n1` [gemcitabine, 4-amino-l-((2i?,4i?,5i?)-3,3-difluoro-4-hydroxy-5-(hydroxymethyl)tetrahydrofuran-2-yl)pyrimidin-2(lH)-one]: in [11], the ORR is recorded as 7%, the “median OS” value was 6.7 months and the “median PFS” value was 3.7 months.

Regarding “obinutuzumab: humanized monoclonal antibody directed against CD20”, in the series on CLL (setting [12]), the MRD-negative complete responses is given as 1 and the response rate was 62%. Besides, in the series on CLL (R/R CLL, Phase 1 portion, n=13), the “infusion related reactions (IRR), Grade 3” value is 15%; the “infusion related reactions (IRR), Grade 4 (in words)” value is “no Grade 4”; the “infusion related reactions (IRR), all grade” value was 100 % of patients. Also, in the series with CLL (R/R CLL, Phase 2 portion), the “Grade 3 reactions among those with hypotension” value is on record as 25%, the “IRR cases developing symptoms of hypotension” value is 60 % of cases and the “patients with IRR” value is given as 95 % of patients.
